One data set has as its system WRL-68 cells. Briefly: Neutral red cell viability assay. It counts as cell-based, human. The settings on record: SIN up to 1,000 μM, 72 hours. From the text:
(§1) The neutral red (NR) cytotoxicity assay is a chemosensitivity assay for measuring cell survival/viability, based on the ability of viable cells to incorporate and bind neutral red, a supravital dye. NR is a weak cationic dye that readily penetrates cell membranes by non-ionic diffusion, accumulating intracellularly in lysosomes, where it binds with anionic sites in the lysosomal matrix. Alterations of the cell surface or the sensitive lysosomal membrane lead to lysosomal fragility and other changes that gradually become irreversible. Such changes brought about by the action of xenobiotics result in a decreased uptake and binding of NR. It is thus possible to distinguish between viable, damaged, or dead cells. (Babich, H et al, 1990)
Three different cell lines HepG2, WRL-68 and Clone 9 cell lines were used in the experiment. HepG2 is a human hepatoblastoma cell line. It is a well known cell model in anti-HCC studies (Alshatwi A A, et al, 2006). WRL-68 is a human normal liver embryo cell line that has a morphologic structure similar to hepatocytes and hepatic primary cultures (Gutierrez-Ruiz, et al, 1994). This cell line was used as the control. Clone 9 is the rat Sprague Dawley (SD) liver normal cell line. […]
HepG2, WRL-68 and Clone 9 cells were grown in complete culture medium (RPMI or DMEM), trypsinized and washed. […] The color was measured at OD540nm.

Data set [1] has as its system p53, Mdm2, p21, PCNA, Bax and Bcl-2. Description: Gene expression assay (semi-quantitative PCR, Western blot) in rat liver, progression stage. It counts as in vivo. The protocol: RNA was extracted from 300 μg of rat liver and was measured as described in foregoing examples Three micrograms of total RNA, 1 μl of an oligo dT primer and certain volume of RNase-Free H2O were mixed into a total volume of 12 μl. The mixture was incubated at 70° C. for 10 minutes and immediately chilled on ice. Four microliters of 5× First Stand Buffer, 2 μl of 0.1M DTT, 1 μl of 10 mM dNTP mix, and 1 μl of SuperScript II were added to each tube and mixed. The tubes were incubated at 42° C. for 50 minutes followed by 70° C. for 15 minutes before chilling on ice. The cDNA was then ready for PCR amplification.
The PCR reactions were performed in a final volume of 20 μl in a Gene Amp® PCR system. The PCR reaction mix contained 1 μl of cDNA synthesized previously, 2 μl 10×PCR Buffer, 0.4 μl 10 mM dNTP mix, 1.2 μl 25 mM MgCl2, 1 μl 10 mM primer mix, 0.2 μl recombinant Taq polymerase, and 14.2 μl autoclaved ddH2O.
The intensity of the PCR products was analyzed by the software Image J. The band intensity of the β-actin gene was measured as an internal control. The ratio of the band intensities of the target gene to the β-actin gene was used to compare the mRNA level of each gene between different treatment groups.
Three hundred micrograms of each liver sample were homogenized in the Solution C at 1 g/ml using a glass homogenizer on ice. The homogenate was transferred to a microcentrifuge tube and centrifuged at 13,000 rpm for 20 minutes. The supernatant was collected and equal volume of 2× sample loading dye was added to each sample. The samples were stored at −20° C. The protein was used for immunodetection of the expression level of Bax, Bcl-2, PCNA and p21.
Three hundreds micrograms of each liver sample were homogenized in Solution A at 1 g/ml using the glass homogenizer on ice. The homogenate was transferred into a microcentrifuge tube and centrifuged at 3,000 rpm for 5 minutes to spin down the unbroken tissue. The supernatant was collected and incubated on ice for 5 minutes and then centrifuged at 5,000 rpm for 5 minutes. The supernatant was discarded and the pellet was lysed by 100 μl Solution B. The lysing process lasted for 20 minutes on ice. After incubation, the solution was centrifuged at 12,000 rpm for 15 seconds to spin down the cell debris. The supernatant was collected and equal volume of 2× sample loading dye was added to each sample. The samples were ready for immunodetection of the expression level of p53 and mdm2.
Each of the transferred membrane blots was incubated in 4 ml TBST with 5% non-fat milk powder and primary antibody overnight at 4° C. After incubation, the membrane was washed in TBST buffer for 10 minutes for 3 times. Each transferred membrane blot was then incubated in 4 ml TBST and 5% non-fat milk powder with secondary antibody for 1 hour at room temperature. After incubation, the membrane was washed in TBST buffer for 10 minutes for 3 times. The membrane was ready for ECL reaction.
The films that captured the signal from the ECL reaction were scanned into the computer and analyzed by the software Image J to read the density of darkness.
Rats in the negative control group received weekly intraperitoneal (i.p.) injection of DMSO for the first 2 weeks and then Corn Oil for 28 weeks. Rats in the positive control and SIN-treatment groups both received weekly intraperitoneal (i.p.) injection of DEN for the first 2 weeks and then CCl4 for 28 weeks. Two weeks of fasting were inserted between DEN treatment and CCl4 treatment. Starting from 33rd week, negative and positive control groups received oral administration of water once a day. Sinigrin with dosage 15 mg/kg was administered orally to the SIN-treatment group daily for 24 weeks. After treatment, the rats were killed. Blood and liver were collected and processed as described in the foregoing examples.
The gene expression assays were performed as described in the foregoing examples. […]
(A western blot detects proteins with antibodies after separation by electrophoresis.)

The subject of the next data set is HepG2 cells. Description: Neutral red cell viability assay. It counts as cell-based. To be noted: Homo sapiens.
Excerpt: as §1
Three different cell lines HepG2, WRL-68 and Clone 9 cell lines were used in the experiment. HepG2 is a human hepatoblastoma cell line. It is a well known cell model in anti-HCC studies (Alshatwi A A, et al, 2006). WRL-68 is a human normal liver embryo cell line that has a morphologic structure similar to hepatocytes and hepatic primary cultures (Gutierrez-Ruiz, et al, 1994). This cell line was used as the control. Clone 9 is the rat Sprague Dawley (SD) liver normal cell line. In the in vivo studies, sinigrin (SIN) would be applied to the SD rat animal model. The employment of this cell line in the cell viability study was to test if SIN would be toxic in the rat animal model.
HepG2, WRL-68 and Clone 9 cells were grown in complete culture medium (RPMI or DMEM), trypsinized and washed. Ten thousand cells of each cell type were seeded in 96-well plates. After 24 hours of pre-incubation, cells were treated with different concentrations of SIN and incubated for 72 hours. After incubation, cells were harvested and washed twice with 1×PBS buffer. Fifty microliters of Neutral Red solution were added to each well. The whole plate was placed into an incubator at 37° C. with 5% CO2. After incubation for 1 hour, the plate was washed twice with 1×PBS buffer, and completely dried in a 60° C. oven overnight. […] The color was measured at OD540nm.

Where [2] appears, read: HepG2, 72 h, read-out: viability of HepG2 cells.

This note sets out measurements from patent US20100120703A1, “COMPOSITIONS AND METHODS FOR TREATING CANCER” (priority 2007, published 2010).

In the case of `C=CC/C(=N/OS(=O)(=O)[O-])S[C@@H]1OC(CO)[C@@H](O)C(O)C1O.[K+]` (stereo partly shown) [SIN, sinigrin], in the data set on WRL-68 cells, the “cell viability of WRL-68 cells (healthy liver cells)” value is “no decrease in cell viability was observed”. Besides, in data set [1] (RT-PCR), the “Mdm2 mRNA expression” value is “reduced back to levels near or even lower than the negative control” and the “p53 mRNA expression” value is on record as “reduced back to levels near or even lower than the negative control”. In data set [1] (Western blot), the “Bax protein expression (decreased in positive group)” value is “reversed”, the “Bcl-2 protein expression (increased in positive group)” value is listed as “reversed”, the “Mdm2 protein expression (increase in positive control)” value is “partially reversed” and the “PCNA protein expression (increased in positive group)” value is “reversed”. In data set [1] (Western blot), the p21 protein expression entry is “restored its expression to a level substantially higher than the negative control”, the “total p53 protein level” value is reported as “significantly increased” and the “wild type p53 protein level” value is “restored its expression to a level even higher than that of the negative control”. Besides, in the data set with HepG2 cells (setting [2]), the viability at 25 µM is ~70% and the viability at 1000 µM was ~35%. Further, in the data set on HepG2 cells (HepG2, 72 hours, neutral red), the IC50 is < 250 µM.

As a reminder, the viability is the share of living cells, or the viability signal relative to a control. As usually defined, the IC50 is the concentration that inhibits the measured activity by half.
